Structures can show the parent of a compound that is named as a salt.
system: NLRP3; test: THP-1 cells pyroptosis assay (LPS + nigericin, resazurin read-out); format: cell-based; conditions: Homo sapiens, 1 μg/ml LPS, 5 μM nigericin, NLRP3 inhibitory activity
Method: THP-1 cells (ATCC #TIB-202) were grown in RPMI containing L-glutamine (Gibco #11835) supplemented with 1 mM sodium pyruvate (Sigma #S8636) and penicillin (100 units/ml)/streptomycin (0.1 mg/ml) (Sigma #P4333) in 10% Fetal Bovine Serum (FBS) (Sigma #F0804). The cells were routinely passaged and grown to confluency (˜10^6 cells/ml). On the day of the experiment, THP-1 cells were harvested and resuspended into RPMI medium (without FBS). The cells were then counted and viability (>90%) checked by Trypan blue (Sigma #T8154). Appropriate dilutions were made to give a concentration of 625,000 cells/ml. To this diluted cell solution was added LPS (Sigma #L4524) to give a 1 μg/ml Final Assay Concentration (FAC). 40 μl of the final preparation was aliquoted into each well of a 96-well plate. The plate thus prepared was used for compound screening. The following method step-by-step assay was followed for compound screening. • 1. Seed THP-1 cells (25,000 cells/well) containing 1.0 μg/ml LPS in 40 μl of RPMI medium (without FBS) in 96-well, black walled, clear bottom cell culture plates coated with poly-D-lysine (VWR #734-0317) • 2. Add 5 μl compound (8 points half-log dilution, with 10 μM top dose) or vehicle (DMSO 0.1% FAC) to the appropriate wells • 3. Incubate for 3 hrs at 37° C., 5% CO2 • 4. Add 5 μl nigericin (Sigma #N7143) (FAC 5 μM) to all wells • 5. Incubate for 1 hr at 37° C., 5% CO2 • 6. At the end of the incubation period, spin plates at 300×g for 3 mins and remove supernatant • 7. Then add 50 μl of resazurin (Sigma #R7017) (FAC 100 μM resazurin in RPMI medium without FBS) and incubate plates for a further 1-2 hrs at 37° C. and 5% CO2 • 8. Plates were read in an Envision reader at Ex 560 nm and Em 590 nm • 9. IC50 data is fitted to a non-linear regression equation (log inhibitor vs response-variable slope 4-parameters) [table]

| Compound | IC50 |
| --- | --- |
| COC1(c2cc(S(=O)(=O)NC(=O)Cc3c4c(cc5c3CCC5)CCC4)nn2C(C)C)COC1 [Example 1, 2-(1,2,3,5,6,7-Hexahydro-s-indacen-4-yl)-N-((1-isopropyl-5-(3-methoxyoxetan-3-yl)-1H-pyrazol-3-yl)sulfonyl)acetamide] | ≤ 5 µM |
| COC1(c2cc(S(=O)(=O)NC(=O)Cc3c(-c4ccnc(C#N)c4)ccc4c3CCC4)nn2C(C)C)COC1 [Example 2, 2-(5-(2-Cyanopyridin-4-yl)-2,3-dihydro-1H-inden-4-yl)-N-((1-isopropyl-5-(3-methoxyoxetan-3-yl)-1H-pyrazol-3-yl)sulfonyl)acetamide, potassium Salt] | ≤ 10 µM |
| COC1(c2cc(S(=O)(=O)NC(=O)Cc3c(C(C)C)cc(F)cc3C(C)C)nn2C(C)C)COC1 [Example 5, 2-(4-Fluoro-2,6-diisopropylphenyl)-N-((1-isopropyl-5-(3-methoxyoxetan-3-yl)-1H-pyrazol-3-yl)sulfonyl)acetamide] | ≤ 5 µM |
| COCC(C)(C)n1ccc(S(=O)(=O)NC(=O)Cc2c(-c3ccnc(OC)c3)cc(F)cc2C(C)C)n1 [Example 8] | ≤ 5 µM |

Results, then the compound that gave them:

| IC50 | Compound |
| --- | --- |
| ≤ 5 µM | COC1(c2cc(S(=O)(=O)NC(=O)Cc3c4c(cc5c3CCC5)CCC4)nn2C2CC2)COC1 [Example 3, N-((1-Cyclopropyl-5-(3-methoxyoxetan-3-yl)-1H-pyrazol-3-yl)sulfonyl)-2-(1,2,3,5,6,7-hexahydro-s-indacen-4-yl)acetamide] |
| ≤ 5 µM | COC(C)(C)Cn1ccc(S(=O)(=O)NC(=O)Cc2c3c(cc4c2CCC4)CCC3)n1 [Example 4, 2-(1,2,3,5,6,7-Hexahydro-s-indacen-4-yl)-N-((1-(2-methoxy-2-methylpropyl)-1H-pyrazol-3-yl)sulfonyl)acetamide] |
| ≤ 5 µM | CC(C)c1cc(F)cc(C(C)C)c1CC(=O)NS(=O)(=O)c1ccn(C[C@@H](C)O)n1 [Example 6, (R)-2-(4-Fluoro-2,6-diisopropylphenyl)-N-((1-(2-hydroxypropyl)-1H-pyrazol-3-yl)sulfonyl)acetamide] |
| ≤ 5 µM | COc1cc(-c2cc(F)cc(C(C)C)c2CC(=O)NS(=O)(=O)c2cnn(CC(C)(C)O)c2)ccn1 [Example 7] |
| ≤ 5 µM | COc1cc(-c2cc(F)cc(C(C)C)c2CC(=O)NS(=O)(=O)c2ccn(C(C)(C)CO)n2)ccn1 [Example 9] |

Reference: US11834433B2, “Compounds” (INFLAZOME LIMITED, priority 2018, dated 2023)
